Reference: article PMC12687449, “Membrane disruption attenuates agonist potency in prostanoid receptors” (Biochemical Journal, 2025)
Values belong to the compound of their own block, whether it stands above or below them. No end group written: not given here.

Columns and labels:
[1] = target: EP4 receptor conformation sensor (Homo sapiens, UniProt P35408); experiment: FRET-based EP4 receptor conformation sensor stably expressed in HEK293 cells (intact, saponin-permeabilized, membrane fragments); format: cell-based; conditions: for Schild plot slope value of fitted linear regression / pKB (Schild plot, abscissa intercept): versus PGE2; for response of about 10 times EC50 normalized to saturating PGE2 concentration: 830 nM 11-deoxy PGE2, pipetting protocol
Method: (§1) The cells were washed once with external buffer and subsequently incubated 2 minutes for single-cell FRET measurements or 10 minutes for BRET measurements in 0.05% saponin (AppliChem, Darmstadt, Germany) dissolved in internal buffer. Afterward, the cells were washed five times for single-cell FRET measurements or three times for BRET measurements with internal buffer.
HEK293 cells stably expressing the EP4 receptor, IP receptor, or DP2 receptor conformation sensor were seeded on 15 cm Ø dishes and grown until optical confluence. The cells were washed once with Dulbecco’s PBS (Capricorn Scientific GmbH), without Ca & Mg and Phenol Red (phosphate-buffered saline, PBS). After adding 5 ml PBS to the cells, the dish was treated with liquid nitrogen until the solution was visibly frozen. These dishes were stored at −80°C until the measurements were carried out. On the day of the measurement, the dishes were removed from the freezer and stored at room temperature until the buffer solution had thawed. The material was collected with a cell scraper and centrifuged (5000 rpm/5 min). The supernatant was discarded, the pellet containing the membrane fragments was resuspended with external buffer containing 0.1% BSA and seeded on microplates. […]

ETB receptor = target: T1, ETB receptor (Homo sapiens, UniProt P24530); experiment: BRET-based G protein activation, wildtype ETB receptor + Gαq biosensor in HEK293T cells; format: cell-based
T1 construct: expressed in transfected cells; host or cells: HEK293T (transient)
T1 sequence (P24530 27-442): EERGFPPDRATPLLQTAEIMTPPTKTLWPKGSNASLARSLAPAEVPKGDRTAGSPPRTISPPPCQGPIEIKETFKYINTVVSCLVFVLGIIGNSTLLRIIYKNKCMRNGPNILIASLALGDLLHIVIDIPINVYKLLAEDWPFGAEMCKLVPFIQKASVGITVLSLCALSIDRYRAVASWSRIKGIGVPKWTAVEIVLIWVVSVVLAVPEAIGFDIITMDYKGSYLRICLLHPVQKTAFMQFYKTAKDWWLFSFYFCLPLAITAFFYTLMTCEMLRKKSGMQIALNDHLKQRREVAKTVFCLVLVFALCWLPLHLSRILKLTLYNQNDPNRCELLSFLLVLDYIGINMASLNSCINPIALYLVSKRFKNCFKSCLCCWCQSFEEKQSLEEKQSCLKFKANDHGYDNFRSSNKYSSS
Method: Two days before BRET measurements were performed, HEK293T cells were transiently transfected with 3 µg of cDNAs containing TP receptor, ETB receptor, DP2 receptor, or S1P3 receptor and 3 µg of cDNAs containing Gβ3-T2A-cpVenus-Gγ9-IRES-Gαq-NLuc or Gβ3-T2A-cpVenus-Gγ9-IRES-Gαo1-NLuc using linear 25 kDa PEI reagent (polyethylenimine, PolyScience Inc., Hirschberg an der Bergstraße, Germany). The ratio between DNA and PEI was 1:3, and 50 µl serum-free DMEM was added per 1 µg DNA. The same amount of serum-free DMEM was also added separately to the PEI solution. DNA-DMEM and PEI-DMEM mixtures were incubated for 5 minutes, followed by incubation of the final mixture for another 10 minutes. […]
Two days before the actual measurement, HEK293T cells were transiently transfected and seeded on microplates. […] The measurements were performed using a Spark 20M plate reader (Tecan) at 37°C. Initially, the cells were measured for the baseline emission ratio. After the baseline measurement, 20 µl of external or internal buffer containing differing concentrations of either U-46619, 4-Ala ET-1, PGD,2 or S1P or external or internal buffer alone were added to the cells and measured. […] The cells were measured from the top and the donor luminescence (NLuc) was recorded at 415 to 470 nm and the acceptor luminescence (cpVenus) at 520 to 590 nm. Data were recorded using SparkControl^TM software. […]

[2] = target: T2, FFA3 receptor conformation sensor (Homo sapiens, UniProt O14843); experiment: FRET-based FFA3 receptor conformation sensor, single-cell measurements in HEK293 cells
T2 construct: mT2 insertion and truncation after G314; expressed in transfected cells
T2 sequence (O14843 1-314 limits assumed): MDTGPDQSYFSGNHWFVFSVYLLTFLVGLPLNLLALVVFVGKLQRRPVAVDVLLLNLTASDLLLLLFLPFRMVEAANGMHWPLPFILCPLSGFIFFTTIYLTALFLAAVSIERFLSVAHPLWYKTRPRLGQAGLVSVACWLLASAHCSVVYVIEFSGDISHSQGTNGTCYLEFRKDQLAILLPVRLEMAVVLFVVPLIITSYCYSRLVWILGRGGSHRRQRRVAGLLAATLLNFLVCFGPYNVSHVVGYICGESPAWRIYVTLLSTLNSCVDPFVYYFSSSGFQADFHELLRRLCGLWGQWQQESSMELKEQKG
Method: as §1
(§2) The coverslips loaded with stably transfected HEK293 cells containing either the FFA3 receptor, α2A-AR CAM, or ETB receptor conformation sensors were clamped in an Attofluor^TM cell chamber and were washed once with external buffer. Afterward, they were side by side either permeabilized or directly measured at room temperature by the use of an inverted microscope (Elipse Ti2, Nikon, Düsseldorf, Germany), equipped with a 100× oil immersion objective (Plan Apo λ 100 x/1.45 oil ∞/0.17 WD 0.13, Nikon, Düsseldorf, Germany) and dual excitation and dual emission imaging capabilities. […] The fluorescence emission of mT2 and the respective YFP variant was simultaneously collected by a second beamsplitter (488, Chroma, Bellows Falls, Vermont, U.S.A.) and two emission filters (mT2: 474/27, Chroma; YFP: 544/23, Chroma). […] For all single-cell FRET experiments, cells were prospectively selected based on a continuous plasma-membrane fluorescence rim and appropriate fluorescence distribution to ensure a PM-dominant receptor signal. […]

[3] = target: T3, α2A-AR conformation sensor CAM (Mus musculus, UniProt Q01338); experiment: FRET-based α2A-AR CAM conformation sensor, single-cell measurements in HEK293 cells; design: species or system murine
T3 sequence (Q01338 1-465): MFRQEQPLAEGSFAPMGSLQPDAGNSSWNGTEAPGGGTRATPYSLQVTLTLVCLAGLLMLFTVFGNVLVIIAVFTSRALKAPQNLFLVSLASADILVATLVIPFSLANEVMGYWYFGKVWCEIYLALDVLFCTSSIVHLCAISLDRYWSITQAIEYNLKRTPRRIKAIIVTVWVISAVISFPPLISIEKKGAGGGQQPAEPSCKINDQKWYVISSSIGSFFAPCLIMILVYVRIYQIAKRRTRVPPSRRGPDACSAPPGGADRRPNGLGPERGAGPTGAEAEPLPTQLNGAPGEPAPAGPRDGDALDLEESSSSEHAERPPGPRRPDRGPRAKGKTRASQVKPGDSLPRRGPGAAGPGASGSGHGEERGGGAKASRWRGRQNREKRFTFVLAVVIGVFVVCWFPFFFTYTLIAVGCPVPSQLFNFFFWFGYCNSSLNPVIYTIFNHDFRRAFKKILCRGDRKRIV
Method: as §1, §2

EP4 receptor conformation sensor, sequence (P35408 1-332 limits assumed): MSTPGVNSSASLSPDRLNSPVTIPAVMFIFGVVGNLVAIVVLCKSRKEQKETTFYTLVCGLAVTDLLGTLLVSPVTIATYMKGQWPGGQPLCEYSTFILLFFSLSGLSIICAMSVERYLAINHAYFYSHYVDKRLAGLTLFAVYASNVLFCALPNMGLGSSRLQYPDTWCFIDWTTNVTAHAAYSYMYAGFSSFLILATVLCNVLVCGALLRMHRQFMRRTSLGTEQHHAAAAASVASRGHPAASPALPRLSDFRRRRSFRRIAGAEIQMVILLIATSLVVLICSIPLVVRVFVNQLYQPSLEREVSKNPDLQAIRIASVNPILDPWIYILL

- Schild plot slope value of fitted linear regression ([1]; intact cells): 1.16
- pKB (Schild plot, abscissa intercept) ([1]; intact cells): 7.7
- Schild plot slope value of fitted linear regression ([1]; membrane fragments): 0.69
- pKB (Schild plot, abscissa intercept) ([1]; membrane fragments): 6.6
Compound: CCCCc1nn(-c2ccccc2C(F)(F)F)c(=O)n1Cc1ccc(-c2ccccc2S(=O)(=O)NC(=O)c2sccc2C)cc1 [L-161,982]

- EC50 (ETB receptor; intact HEK293T cells): 8.91 nM
- EC50 (ETB receptor; saponin-permeabilized cells with 1 µM GTP): 0.617 nM
Compound: ASASSLMDKEAVYFAHLDIIW-OH [4-Ala ET-1]

- pEC50 ([3]; intact cells): 6.10
- pEC50 ([3]; saponin-permeabilized cells): 5.63
Compound: NC[C@H](O)c1ccc(O)c(O)c1 [norepinephrine]

The next lines start with the compound.

Compound: CCCCC[C@H](O)/C=C/[C@H]1CCC(=O)[C@@H]1C/C=C\CCCC(=O)O [11-deoxy PGE2]
- pEC50 ([1]; intact HEK293 cells, multiple-cell FRET on plate reader): 7.08
- response of about 10 times EC50 normalized to saturating PGE2 concentration ([1]; intact cells): 91% ± 3
- response of about 10 times EC50 normalized to saturating PGE2 concentration ([1]; saponin-permeabilized cells): 50% ± 3

Compound: CCC(=O)O [propionate, propionic acid]
- pEC50 ([2]; intact cells): 3.92
- pEC50 ([2]; saponin-permeabilized cells): 3.84
